Results as given in patent EP0497314A1, “Use of azapirones in attention deficit hyperactivity disorder” (Bristol-Myers Squibb Company, priority 1991, dated 1992).
Counter-ions that a name gives are not always drawn. Marks after values point to notes of the source that are not given here.

Key:
[1] = tested on: rabbit cortex; assay: Quantitative EEG, rabbit cortex, intravenous administration; assay type: in vivo, rabbits; conditions: for group percent change in electrical energy from pre-drug control, Δ band / mean change ± S.E. in electrical energy from pre-drug control, Δ band / group percent change in electrical energy from pre-drug control, α band / mean change ± S.E. in electrical energy from pre-drug control, α band / group percent change in electrical energy from pre-drug control, β band / mean change ± S.E. in electrical energy from pre-drug control, β band / group percent change in electrical energy from pre-drug control, γ band / mean change ± S.E. in electrical energy from pre-drug control, γ band / group percent change in electrical energy from pre-drug control, θ band / mean change ± S.E. in electrical energy from pre-drug control, θ band: rabbit cortex; for group percent change in electrical energy from pre-drug control, Δ band / mean change ± S.E. in electrical energy from pre-drug control, Δ band: Δ = 0.5-3.5 Hz; for group percent change in electrical energy from pre-drug control, α band / mean change ± S.E. in electrical energy from pre-drug control, α band: α= 7-13 Hz; for group percent change in electrical energy from pre-drug control, β band / mean change ± S.E. in electrical energy from pre-drug control, β band: β= 13-25 Hz; for group percent change in electrical energy from pre-drug control, γ band / mean change ± S.E. in electrical energy from pre-drug control, γ band: γ= 25-40 Hz; for group percent change in electrical energy from pre-drug control, θ band / mean change ± S.E. in electrical energy from pre-drug control, θ band: θ= 3.5-7.0 Hz
In short: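 Restrained rabbits with cortical leads had EEG split into Δ, ϑ, α, β and γ bands and integrated over 1 h from the moment of i.v. injection, in saline, dosed as free base. Counts were compared with each animal's own pretreatment control by paired t-test (p≦0.05). Doses were reduced geometrically to a no-effect level.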

[2] = tested on: fronto-occipital cortex of the cat; assay: Quantitative EEG, fronto-occipital cat cortex, subcutaneous administration; assay type: in vivo, cats; conditions: for group percent change in electrical energy from pre-drug control, Δ band / mean change ± S.E. in electrical energy from pre-drug control, Δ band / group percent change in electrical energy from pre-drug control, α band / mean change ± S.E. in electrical energy from pre-drug control, α band / group percent change in electrical energy from pre-drug control, β band / mean change ± S.E. in electrical energy from pre-drug control, β band / group percent change in electrical energy from pre-drug control, γ band / mean change ± S.E. in electrical energy from pre-drug control, γ band / group percent change in electrical energy from pre-drug control, θ band / mean change ± S.E. in electrical energy from pre-drug control, θ band: fronto-occipital cat cortex; for group percent change in electrical energy from pre-drug control, Δ band / mean change ± S.E. in electrical energy from pre-drug control, Δ band: Δ = 0.05-35 Hz; for group percent change in electrical energy from pre-drug control, α band / mean change ± S.E. in electrical energy from pre-drug control, α band: α= 7-13 Hz; for group percent change in electrical energy from pre-drug control, β band / mean change ± S.E. in electrical energy from pre-drug control, β band: β= 13-25 Hz; for group percent change in electrical energy from pre-drug control, γ band / mean change ± S.E. in electrical energy from pre-drug control, γ band: γ= 25-40 Hz; for group percent change in electrical energy from pre-drug control, θ band / mean change ± S.E. in electrical energy from pre-drug control, θ band: θ= 3.5-7.0 Hz
In short: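 Adult female mongrel cats (n=6 per group) with implanted electrodes were recorded while held in restraining bags, with EEG filtered into Δ, ϑ, α, β and γ bands and integrated as energy counts. Drugs were given subcutaneously in saline, with doses calculated as free base, and recording started 30 min post-injection. Changes from each animal's pre-treatment control were tested by paired Student t-test (P≦0.05).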

COC(=O)C(c1ccccc1)C1CCCCN1 (stereo not drawn) [Methylphenidate HCl, methylphenidate]
minimal effective dose ([1]; Oryctolagus cuniculus, iv, read-out: the minimum dose required to produce the EEG profile characteristic of that particular drug): 0.125 mg/kg
relative potency by comparing minimal doses required to elicit EEG profiles ([1]; rabbit cortex EEG, i.v.): approximately four times more potent than buspirone
the no-effect dose ([1]; rabbit cortex EEG, dose of free base): 0.0625† mg/kg, i.v.
group percent change in electrical energy from pre-drug control, Δ band ([1]; 0.0625 mg/kg free base i.v.): +3%
mean change ± S.E. in electrical energy from pre-drug control, Δ band ([1]; 0.0625 mg/kg free base i.v.): +7 ± 19 instrument counts
group percent change in electrical energy from pre-drug control, Δ band ([1]; 0.125 mg/kg free base i.v.): -36%
mean change ± S.E. in electrical energy from pre-drug control, Δ band ([1]; 0.125 mg/kg free base i.v.): -120 ± 36 instrument counts
group percent change in electrical energy from pre-drug control, α band ([1]; 0.0625 mg/kg free base i.v.): +6%
mean change ± S.E. in electrical energy from pre-drug control, α band ([1]; 0.0625 mg/kg free base i.v.): +8 ± 10 instrument counts
group percent change in electrical energy from pre-drug control, α band ([1]; 0.125 mg/kg free base i.v.): -23%
mean change ± S.E. in electrical energy from pre-drug control, α band ([1]; 0.125 mg/kg free base i.v.): -47 ± 16 instrument counts
group percent change in electrical energy from pre-drug control, β band ([1]; 0.0625 mg/kg free base i.v.): +4%
mean change ± S.E. in electrical energy from pre-drug control, β band ([1]; 0.0625 mg/kg free base i.v.): +4 ± 6 instrument counts
group percent change in electrical energy from pre-drug control, β band ([1]; 0.125 mg/kg free base i.v.): -22%
mean change ± S.E. in electrical energy from pre-drug control, β band ([1]; 0.125 mg/kg free base i.v.): -35 ± 6 instrument counts
group percent change in electrical energy from pre-drug control, γ band ([1]; 0.0625 mg/kg free base i.v.): -1%
mean change ± S.E. in electrical energy from pre-drug control, γ band ([1]; 0.0625 mg/kg free base i.v.): -1 ± 2 instrument counts
group percent change in electrical energy from pre-drug control, γ band ([1]; 0.125 mg/kg free base i.v.): -7%
mean change ± S.E. in electrical energy from pre-drug control, γ band ([1]; 0.125 mg/kg free base i.v.): -9 ± 2 instrument counts
group percent change in electrical energy from pre-drug control, θ band ([1]; 0.0625 mg/kg free base i.v.): +6%
mean change ± S.E. in electrical energy from pre-drug control, θ band ([1]; 0.0625 mg/kg free base i.v.): +3 ± 9 instrument counts
group percent change in electrical energy from pre-drug control, θ band ([1]; 0.125 mg/kg free base i.v.): -24%
mean change ± S.E. in electrical energy from pre-drug control, θ band ([1]; 0.125 mg/kg free base i.v.): -60 ± 16 instrument counts
minimal effective dose ([2]; Felis catus, sc, read-out: the minimum dose required to produce the EEG profile characteristic of that particular drug): 0.25 mg/kg
relative potency by comparing minimal doses required to elicit EEG profiles ([2]; cat cortex EEG, s.c.): equal potency
the no-effect dose ([2]; fronto-occipital cat cortex EEG, dose of free base): 0.125† mg/kg, s.c.
group percent change in electrical energy from pre-drug control, Δ band ([2]; 0.125 mg/kg free base s.c.): -22%
mean change ± S.E. in electrical energy from pre-drug control, Δ band ([2]; 0.125 mg/kg free base s.c.): -44 ± 18 instrument counts
group percent change in electrical energy from pre-drug control, Δ band ([2]; 0.25 mg/kg free base s.c.): -14%
mean change ± S.E. in electrical energy from pre-drug control, Δ band ([2]; 0.25 mg/kg free base s.c.): -31 ± 18 instrument counts
group percent change in electrical energy from pre-drug control, Δ band ([2]; 1.0 mg/kg free base s.c.): -2%
mean change ± S.E. in electrical energy from pre-drug control, Δ band ([2]; 1.0 mg/kg free base s.c.): -4 ± 30 instrument counts
group percent change in electrical energy from pre-drug control, Δ band ([2]; 4.0 mg/kg free base s.c.): -8%
mean change ± S.E. in electrical energy from pre-drug control, Δ band ([2]; 4.0 mg/kg free base s.c.): -16 ± 45 instrument counts
group percent change in electrical energy from pre-drug control, α band ([2]; 0.125 mg/kg free base s.c.): -18%
mean change ± S.E. in electrical energy from pre-drug control, α band ([2]; 0.125 mg/kg free base s.c.): -24 ± 10 instrument counts
group percent change in electrical energy from pre-drug control, α band ([2]; 0.25 mg/kg free base s.c.): -31%
mean change ± S.E. in electrical energy from pre-drug control, α band ([2]; 0.25 mg/kg free base s.c.): -39 ± 12 instrument counts
group percent change in electrical energy from pre-drug control, α band ([2]; 1.0 mg/kg free base s.c.): -46%
mean change ± S.E. in electrical energy from pre-drug control, α band ([2]; 1.0 mg/kg free base s.c.): -52 ± 14 instrument counts
group percent change in electrical energy from pre-drug control, α band ([2]; 4.0 mg/kg free base s.c.): -51%
mean change ± S.E. in electrical energy from pre-drug control, α band ([2]; 4.0 mg/kg free base s.c.): -63 ± 11 instrument counts
group percent change in electrical energy from pre-drug control, β band ([2]; 0.125 mg/kg free base s.c.): -2%
mean change ± S.E. in electrical energy from pre-drug control, β band ([2]; 0.125 mg/kg free base s.c.): -3 ± 5 instrument counts
group percent change in electrical energy from pre-drug control, β band ([2]; 0.25 mg/kg free base s.c.): -9%
mean change ± S.E. in electrical energy from pre-drug control, β band ([2]; 0.25 mg/kg free base s.c.): -11 ± 4 instrument counts
group percent change in electrical energy from pre-drug control, β band ([2]; 1.0 mg/kg free base s.c.): -19%
mean change ± S.E. in electrical energy from pre-drug control, β band ([2]; 1.0 mg/kg free base s.c.): -20 ± 5 instrument counts
group percent change in electrical energy from pre-drug control, β band ([2]; 4.0 mg/kg free base s.c.): -12%
mean change ± S.E. in electrical energy from pre-drug control, β band ([2]; 4.0 mg/kg free base s.c.): -14 ± 4 instrument counts
group percent change in electrical energy from pre-drug control, γ band ([2]; 0.125 mg/kg free base s.c.): +7%
mean change ± S.E. in electrical energy from pre-drug control, γ band ([2]; 0.125 mg/kg free base s.c.): +6 ± 2 instrument counts
group percent change in electrical energy from pre-drug control, γ band ([2]; 0.25 mg/kg free base s.c.): +9%
mean change ± S.E. in electrical energy from pre-drug control, γ band ([2]; 0.25 mg/kg free base s.c.): +7 ± 2 instrument counts
group percent change in electrical energy from pre-drug control, γ band ([2]; 1.0 mg/kg free base s.c.): +13%
mean change ± S.E. in electrical energy from pre-drug control, γ band ([2]; 1.0 mg/kg free base s.c.): +10 ± 3 instrument counts
group percent change in electrical energy from pre-drug control, γ band ([2]; 4.0 mg/kg free base s.c.): +35%
mean change ± S.E. in electrical energy from pre-drug control, γ band ([2]; 4.0 mg/kg free base s.c.): +25 ± 5 instrument counts
group percent change in electrical energy from pre-drug control, θ band ([2]; 0.125 mg/kg free base s.c.): -20%
mean change ± S.E. in electrical energy from pre-drug control, θ band ([2]; 0.125 mg/kg free base s.c.): -31 ± 11 instrument counts
group percent change in electrical energy from pre-drug control, θ band ([2]; 0.25 mg/kg free base s.c.): -27%
mean change ± S.E. in electrical energy from pre-drug control, θ band ([2]; 0.25 mg/kg free base s.c.): -38 ± 16 instrument counts
group percent change in electrical energy from pre-drug control, θ band ([2]; 1.0 mg/kg free base s.c.): -34%
mean change ± S.E. in electrical energy from pre-drug control, θ band ([2]; 1.0 mg/kg free base s.c.): -45 ± 17 instrument counts
group percent change in electrical energy from pre-drug control, θ band ([2]; 4.0 mg/kg free base s.c.): -41%
mean change ± S.E. in electrical energy from pre-drug control, θ band ([2]; 4.0 mg/kg free base s.c.): -56 ± 14 instrument counts
